The values below are quoted from earlier work in patent publication US20140228287A1, “1-[(3-CYANO-PYRIDIN-2-YL)METHYL]-3-METHYL-7-(2-BUTYN-1-YL)-8-[3-(R)-AMINO-PIPERIDIN-1-YL]-AXANTHINE FOR THE TREATMENT OF A METABOLIC DISORDER OF A PREDOMINANTLY CARNIVOROUS NON-HUMAN ANIMAL” (BOEHRINGER INGELHEIM VETMEDICA GMBH, priority 2010, published 2014).

One series concerns GLP-1. To be noted: after administration to rats and to cats; cited from earlier work.
In another series the test system is plasma glucagon. The following applies: in vivo; cited from earlier work.

In the case of `CC#CCn1c(N2CCC[C@@H](N)C2)nc2c1c(=O)n(Cc1nc(C)cc3ccccc13)c(=O)n2C` [1-[(3-Methyl-isochinoline-1-yl)methyl]-3-methyl-7-(2-butin-1-yl)-8-((R)-3-amino-piperidine-1-yl)-xanthine], the “effect of GLP-1” value in the series with GLP-1 was “the effect of GLP-1 could be prolonged”. For the compound `N#Cc1ccc(NCCNCC(=O)N2CCC[C@H]2C#N)nc1` [NVP-DPP728], the “plasma glucagon concentration in cats” value in the series with plasma glucagon is listed as “reduce the plasma glucagon concentration”.
